Laboratory results: ChEMBL document CHEMBL4837216, “Polymyxin B-inspired non-hemolytic tyrocidine A analogues with significantly enhanced activity against gram-negative bacteria: How cationicity impacts cell specificity and antibacterial mechanism” (Eur J Med Chem, 2021)
Converted amounts (≈) assume the structure as drawn. The source made the active and inactive calls. The rule behind the calls is not given here.

Legend:
Escherichia coli [1] = experiment: Bactericidal activity against Escherichia coli assessed as decrease in cell survival at 1XMIC measured after 24 hrs by colony counting assay; format: functional, organism-based
[2] = Hemolytic activity in human RBC assessed as induction of cell lysis measured after 30 mins by microtiter plate method; format: cell-based, Erythrocyte; settings: human red blood cells (erythrocytes)
Escherichia coli [3] = experiment: Antibacterial activity against Escherichia coli ATCC 8739 infected in C57BL/6 mouse peritonitis sepsis model assessed as reduction in inflammatory cell infiltration in kidney at 10 mg/kg, ip administered for 12 hrs by Hematoxylin-Eosin staining based microscopic analysis; format: functional, organism-based
Staphylococcus aureus [4] = experiment: Antibacterial activity against Staphylococcus aureus ATCC 6538 assessed as inhibition of bacterial growth measured after 24 hrs by turbidity based analysis; format: functional
Cell membrane [5] = experiment: Induction of cell membrane disruption in Escherichia coli assessed as increase in fluorescence intensity at 4 times MIC measured after 60 mins by PI staining based flow cytometric analysis (reference value: 0.1%); format: subcellular
Escherichia coli [6] = experiment: Antibacterial activity against Escherichia coli ATCC 8739 infected in C57BL/6 mouse peritonitis sepsis model assessed as clear boundaries between white and red pulps in spleen at 10 mg/kg, ip administered for 12 hrs by Hematoxylin-Eosin staining based microscopic analysis; format: functional, organism-based
Escherichia coli [7] = experiment: Antibacterial activity against Escherichia coli ATCC 8739 infected in C57BL/6 mouse peritonitis sepsis model assessed as bacterial load in kidney at 10 mg/kg, ip administered for 12 hrs (reference value: 5.15 +/-0.4 logCFU/gm); format: functional
Lipid bilayer [8] = experiment: Binding affinity to bacterial inner membrane mimic DOPE/DOPG (3:1) large unilamellar vesicles assessed as calcein leakage measured after 30 mins fluorescence based assay
Staphylococcus aureus [9] = experiment: Antibacterial activity against methicillin resistant Staphylococcus aureus assessed as inhibition of bacterial growth measured after 24 hrs by turbidity based analysis; format: functional
Cell membrane [10] = experiment: Induction of outer membrane permeabilization to NPN in Escherichia coli ATCC 8739 cells assessed as increase in fluorescence intensity by NPN-probe based fluorescence spectrophotometric analysis; format: subcellular
Escherichia coli [11] = experiment: Antibacterial activity against Escherichia coli ATCC 8739 infected in C57BL/6 mouse peritonitis sepsis model assessed as bacterial load in lung at 10 mg/kg, ip administered for 12 hrs (reference value: 5.47 +/-0.73 logCFU/gm); format: functional
Cell membrane [12] = experiment: Induction of cytoplasmic membrane depolarization in Escherichia coli assessed as increase in fluorescence intensity a 1XMIC by DiSC3-5 dye based fluorescence method
Escherichia coli [13] = experiment: Antibacterial activity against Escherichia coli ATCC 8739 infected in C57BL/6 mouse peritonitis sepsis model assessed as bacterial load in liver at 10 mg/kg, ip administered for 12 hrs (reference value: 5.7 +/-0.35 logCFU/gm); format: functional
Escherichia coli [14] = experiment: Antibacterial activity against Escherichia coli ATCC 8739 infected in C57BL/6 mouse peritonitis sepsis model assessed as reduction in bleeding with normal shaped alveoli at 10 mg/kg, ip administered for 12 hrs by Hematoxylin-Eosin staining based microscopic analysis; format: functional, organism-based
Cell membrane [15] = experiment: Induction of cytoplasmic membrane permeabilization in Escherichia coli assessed as increase in red fluorescence intensity at 2 times MIC measured after 60 mins by fluorescence microscopy; format: subcellular
Escherichia coli [16] = experiment: Antibacterial activity against Escherichia coli ATCC 8739 infected in C57BL/6 mouse peritonitis sepsis model assessed as reduction in inflammatory cell infiltration in lung at 10 mg/kg, ip administered for 12 hrs by Hematoxylin-Eosin staining based microscopic analysis; format: functional, organism-based
Cell membrane [17] = experiment: Induction of cytoplasmic membrane permeabilization in Escherichia coli at 0.06 to 8 times MIC measured for 60 mins by propidium iodide dye based fluorescence assay
Cell membrane [18] = experiment: Induction of cytoplasmic membrane depolarization in Staphylococcus aureus assessed as increase in fluorescence intensity a 1XMIC by DiSC3-5 dye based fluorescence method
Escherichia coli [19] = experiment: Antibacterial activity against Escherichia coli ATCC 8739 infected in C57BL/6 mouse peritonitis sepsis model assessed as bacterial load in spleen at 10 mg/kg, ip administered for 12 hrs (reference value: 6.01 +/-0.59 logCFU/gm); format: functional
Cell membrane [20] = experiment: Induction of cell membrane disruption in Escherichia coli assessed as wrinkled cells at 20 uM incubated for 1 hr by scanning electron microscopy
Pseudomonas aeruginosa = experiment: Antibacterial activity against Pseudomonas aeruginosa ATCC 27853 assessed as inhibition of bacterial growth measured after 24 hrs by turbidity based analysis; format: functional
Staphylococcus aureus [21] = experiment: Bactericidal activity against Staphylococcus aureus assessed as decrease in cell survival at 1XMIC measured after 24 hrs by colony counting assay; format: functional, organism-based
Cell membrane [22] = experiment: Induction of cytoplasmic membrane permeabilization in Staphylococcus aureus assessed as increase in red fluorescence intensity at 2 times MIC measured after 60 mins by fluorescence microscopy
Cell membrane [23] = experiment: Induction of cytoplasmic membrane permeabilization in Staphylococcus aureus at 0.06 to 8 times MIC measured for 60 mins by propidium iodide dye based fluorescence assay; format: subcellular
Cell membrane [24] = experiment: Induction of cell membrane disruption in Escherichia coli assessed as increase in fluorescence intensity at 1 times MIC measured after 60 mins by PI staining based flow cytometric analysis (reference value: 0.1%); format: subcellular
Staphylococcus aureus [25] = experiment: Antibacterial activity against Staphylococcus aureus ATCC 6538 assessed as inhibition of bacterial growth measured after 17 passages by turbidity based analysis; format: functional, organism-based
Escherichia coli [26] = experiment: Antibacterial activity against Escherichia coli ATCC 8739 assessed as inhibition of bacterial growth measured after 17 passages by turbidity based analysis; format: functional, organism-based
Escherichia coli [27] = experiment: Antibacterial activity against Escherichia coli ATCC 8739 assessed as inhibition of bacterial growth measured after 24 hrs by turbidity based analysis; format: functional
Escherichia coli [28] = experiment: Antibacterial activity against Escherichia coli ATCC 8739 infected in C57BL/6 mouse peritonitis sepsis model assessed as glomerulus and renal tubules with normal shape in kidney at 10 mg/kg, ip administered for 12 hrs by Hematoxylin-Eosin staining based microscopic analysis; format: functional, organism-based
L02 = experiment: Cytotoxicity against human L02 cells assessed as reduction in cell viability at >10 uM incubated for 24 hrs by CCK8 assay; format: cell-based; settings: l02, 24 h
Enterococcus faecalis = experiment: Antibacterial activity against Enterococcus faecalis ATCC 29212 assessed as inhibition of bacterial growth measured after 24 hrs by turbidity based analysis; format: functional
Cell membrane [29] = experiment: Induction of cell membrane disruption in Staphylococcus aureus assessed as cell morphological damage at 20 uM incubated for 1 hr by scanning electron microscopy; format: subcellular
Cell membrane [30] = experiment: Induction of cytoplasmic membrane permeabilization in Staphylococcus aureus at 0.06 to 8 times MIC measured for 10 mins by propidium iodide dye based fluorescence assay
Cell membrane [31] = experiment: Induction of cytoplasmic membrane permeabilization in Escherichia coli at 0.06 to 8 times MIC measured for 10 mins by propidium iodide dye based fluorescence assay
Lipopolysaccharide (LPS) = experiment: Displacement of dansyl-polymyxinB from LPS (unknown origin) assessed as decrease in fluorescence intensity by fluorescence spectrophotometric analysis
[32] = Stability of the compound in human serum at 100 uM measured after 24 hrs by RP-HPLC analysis; format: ADME, cell-free
Lipid bilayer [33] = experiment: Binding affinity to eukaryotic cell membrane mimic DOPC/Cholesterol (3:1) large unilamellar vesicles assessed as calcein leakage measured after 30 mins fluorescence based assay
Escherichia coli [34] = experiment: Antibacterial activity against Escherichia coli ATCC 8739 infected in C57BL/6 mouse peritonitis sepsis model assessed as clear boundaries between hepatic cell cords in liver at 10 mg/kg, ip administered for 12 hrs by Hematoxylin-Eosin staining based microscopic analysis; format: functional, organism-based
Acinetobacter baumannii = experiment: Antibacterial activity against Acinetobacter baumannii ATCC 19606 assessed as inhibition of bacterial growth measured after 24 hrs by turbidity based analysis; format: functional; settings: ATCC 19606 = CIP 70.34 = JCM 6841
Escherichia coli [35] = experiment: Antibacterial activity against Escherichia coli ATCC 8739 infected in C57BL/6 mouse peritonitis sepsis model assessed as reduction in inflammatory cell infiltration in liver at 10 mg/kg, ip administered for 12 hrs by Hematoxylin-Eosin staining based microscopic analysis; format: functional, organism-based
Cell membrane [36] = experiment: Induction of cell membrane disruption in Escherichia coli assessed as increase in fluorescence intensity at 2 times MIC measured after 60 mins by PI staining based flow cytometric analysis (reference value: 0.1%); format: subcellular
Escherichia coli [37] = experiment: Antibacterial activity against Escherichia coli ATCC 8739 infected in C57BL/6 mouse peritonitis sepsis model assessed as reduction in inflammatory cell infiltration in spleen at 10 mg/kg, ip administered for 12 hrs by Hematoxylin-Eosin staining based microscopic analysis; format: functional, organism-based

CC(C)C[C@@H]1NC(=O)[C@H](CCCN)NC(=O)[C@H](CCCN)NC(=O)[C@H](CCCN)NC(=O)[C@H](CCCN)NC(=O)[C@H](CCCN)NC(=O)[C@@H](Cc2ccccc2)NC(=O)[C@H](Cc2ccccc2)NC(=O)[C@@H]2CCCN2C(=O)[C@@H](Cc2ccccc2)NC1=O
Activity (Escherichia coli [1]): Active
HC50 at 0.5 h [2]: > 400 µM
Activity (Escherichia coli [3]): Active
MIC (Staphylococcus aureus [4]): 5 µM (≈ 6.11 µg/mL)
Activity (Cell membrane [5]): 91.8%
Activity (Escherichia coli [6]): Active
Activity (Escherichia coli [7]): 3.48 log10CFU/g
Activity (Lipid bilayer [8]): Active
MIC (Staphylococcus aureus [9]): 10 µM (≈ 12.2 µg/mL)
Activity (Cell membrane [10]): Active
Activity (Escherichia coli [11]): 3.15 log10CFU/g
Activity (Cell membrane [12]): Active
Activity (Escherichia coli [13]): 2.49 log10CFU/g
Activity (Escherichia coli [14]): Active
Activity (Cell membrane [15]): Active
Activity (Escherichia coli [16]): Active
Activity (Cell membrane [17]): Active
Activity (Cell membrane [18]): Active
Activity (Escherichia coli [19]): 4.25 log10CFU/g
Activity (Cell membrane [20]): Active
MIC (Pseudomonas aeruginosa): 10 µM (≈ 12.2 µg/mL)
Activity (Staphylococcus aureus [21]): Active
Activity (Cell membrane [22]): Active
Activity (Cell membrane [23]): Active
Activity (Cell membrane [24]): 42.7%
Activity (Staphylococcus aureus [25]): Active
Activity (Escherichia coli [26]): Active
MIC (Escherichia coli [27]): 5 µM (≈ 6.11 µg/mL)
Activity (Escherichia coli [28]): Active
Activity (L02): Toxic
MIC (Enterococcus faecalis): 5 µM (≈ 6.11 µg/mL)
Activity (Cell membrane [29]): Active
Activity (Cell membrane [30]): inactive
Activity (Cell membrane [31]): inactive
Activity (Lipopolysaccharide (LPS)): Active
Stabilty [32]: Stable
Activity (Lipid bilayer [33]): inactive
Activity (Escherichia coli [34]): Active
MIC (Acinetobacter baumannii): 10 µM (≈ 12.2 µg/mL)
Activity (Escherichia coli [35]): Active
Activity (Cell membrane [36]): 78.3%
Activity (Escherichia coli [37]): Active
